According to PubChem BioAssay AID449756 (Broad Institute, 2010):
Results filed as inconclusive are left out.

These compounds were tested on INS-1E rat beta cells, cytokine apoptosis rescue, ATP luminescence 48 h (assay: INS-1E survival protection against cytokine death – cell-based, luminescence, retest, dose response (AID 449756)).
With C#CCOCCOCCOCCNc1nc(N2CCN(C(=O)CCCCCCCCCCNC(=O)[C@H]([C@@H](C)CC)n3cc(CCCCCN)nn3)CC2)nc(N2CCN(C(=O)CCCCCCCCCCNC(=O)[C@@H]([C@H](C)O)n3cc(C)nn3)CC2)n1 the AC50 was 5.76 µM. C=C(C=O)C[C@@H]1C[C@H](O)C2OC3C[C@]4(C)OC5/C=C\CC6OC7C(CC=CCC6OC5CCCC4OC3CC2O1)OC1CC2OC3CC(=O)OC3C[C@@H](C)C[C@@]2(C)OC1C[C@@H]7C (stereo not given in full) showed an AC50 of 2.17 µM. C#CCOCCOCCOCCNc1nc(N2CCN(C(=O)CCCCCCCCCCNC(=O)[C@H](CCCCN)n3cc(C)nn3)CC2)nc(N2CCN(C(=O)CCCCCCCCCCNC(=O)[C@H](CCCN=C(N)N)n3cc(C[C@@H](C)CC)nn3)CC2)n1 gave an AC50 of 6.66 µM. C#CCOCCOCCOCCNc1nc(N2CCN(C(=O)CCCCCCCCCCNC(=O)Cn3cc(CCCCCN)nn3)CC2)nc(N2CCN(C(=O)CCCCCCCCCCNC(=O)[C@H]([C@@H](C)CC)n3cc(CCCCN=C(N)N)nn3)CC2)n1 was tested, and the AC50 was 6.89 µM. Work on C#CCOCCOCCOCCNc1nc(N2CCN(C(=O)CCCCCCCCCCNC(=O)[C@H]([C@@H](C)CC)n3cc(CCCCN=C(N)N)nn3)CC2)nc(N2CCN(C(=O)CCCCCCCCCCNC(=O)[C@H](CO)n3cc(CCCCCN)nn3)CC2)n1 yielded an AC50 of 6.94 µM. In the case of C#CCOCCOCCOCCNc1nc(N2CCN(C(=O)CCCCCCCCCCNC(=O)[C@H]([C@@H](C)CC)n3cc(CCCCN=C(N)N)nn3)CC2)nc(N2CCN(C(=O)CCCCCCCCCCNC(=O)[C@H](CCCCN)n3cc(C)nn3)CC2)n1, the AC50 is reported as 4.96 µM. Compound C#CCOCCOCCOCCNc1nc(N2CCN(C(=O)CCCCCCCCCCNC(=O)[C@H](CCCCN)n3cc(C)nn3)CC2)nc(N2CCN(C(=O)CCCCCCCCCCNC(=O)[C@@H]([C@H](C)CC)n3cc(CCCCCN)nn3)CC2)n1 has an AC50 of 5.59 µM. Compound C#CCOCCOCCOCCNc1nc(N2CCN(C(=O)CCCCCCCCCCNC(=O)[C@H]([C@@H](C)CC)n3cc(CCCCCN)nn3)CC2)nc(N2CCN(C(=O)CCCCCCCCCCNC(=O)[C@H]([C@@H](C)CC)n3cc(CCCCN=C(N)N)nn3)CC2)n1 has an AC50 of 4.66 µM. Compound C#CCOCCOCCOCCNc1nc(N2CCN(C(=O)CCCCCCCCCCNC(=O)[C@@H](CCSC)n3cc(CCO)nn3)CC2)nc(N2CCN(C(=O)CCCCCCCCCCNC(=O)[C@H]([C@@H](C)CC)n3cc(CCCCCN)nn3)CC2)n1 has an AC50 of 3.98 µM. C#CCOCCOCCOCCNc1nc(N2CCN(C(=O)CCCCCCCCCCNC(=O)[C@H](CCCCN)n3cc(CCO)nn3)CC2)nc(N2CCN(C(=O)CCCCCCCCCCNC(=O)[C@H](CCCCN)n3cc(C[C@@H](C)CC)nn3)CC2)n1 gave an AC50 of 6.27 µM.
